The values that follow come from PubChem BioAssay (NCI).

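Where inhibition never reached the appropriate level, the endpoint shown equals the highest concentration tested. Otherwise, values were interpolated linearly from a five-concentration, 48-hour dose response in 96-well plates. TGI is the concentration that stops growth completely.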

Among the test systems are HS 578T breast; IGROV1 ovarian; K-562 leukemia; MALME-3M melanoma; MDA-MB-231 breast; RPMI-8226 leukemia; SF-295 CNS; SR leukemia; UACC-62 melanoma; NCI-H522 lung.
Test in all cases: DTP human tumour cell line panel, 48 h

In general, TGI refers to the concentration giving total growth inhibition. A high value points to less potent growth arrest. For `COc1ccc(C2SC(N)=Nc3c2c(C)nn3C(=O)c2ccncc2)cc1` (centres undefined), the TGI in the assay with HS 578T breast, with IGROV1 ovarian, in the assay with K-562 leukemia, with MALME-3M melanoma, in the assay on MDA-MB-231 breast and in the assay with RPMI-8226 leukemia was more than 100 µM throughout. The values for the total growth inhibition concentration (TGI) in the assay on SF-295 CNS, in the assay with SR leukemia and in the assay with UACC-62 melanoma were more than 100 µM, 73 µM and more than 100 µM, respectively.

Take `Cc1ccccc1N=C(N)NC#N`: the TGI in the assay on HS 578T breast, with IGROV1 ovarian, with K-562 leukemia, in the assay with MALME-3M melanoma, in the assay on MDA-MB-231 breast and in the assay on RPMI-8226 leukemia was more than 100 µM in each case. For the same molecule, the TGI in the assay with SR leukemia and in the assay on UACC-62 melanoma was more than 100 µM throughout.

Consider `O=C(NCC1Nc2ccncc2S(=O)(=O)N1)c1ccc(Br)cc1` (centres undefined), for which the concentration for total growth inhibition (TGI) in the assay with HS 578T breast was 83.1 µM; in the assay on IGROV1 ovarian, more than 100 µM; in the assay with K-562 leukemia it was more than 100 µM; with MALME-3M melanoma it was 97.5 µM; with MDA-MB-231 breast, more than 100 µM; in the assay on NCI-H522 lung, more than 100 µM. Further, the total growth inhibition concentration (TGI) in the assay on RPMI-8226 leukemia, with SF-295 CNS and with UACC-62 melanoma was more than 100 µM each time.

For the molecule `Cc1c2c(n3c(nc4ccccc43)c1C#N)SCC2`, the TGI in the assay with HS 578T breast, with IGROV1 ovarian, in the assay with K-562 leukemia, in the assay with MALME-3M melanoma, in the assay on MDA-MB-231 breast and with RPMI-8226 leukemia was more than 10 µM each time. In addition, the total growth inhibition concentration (TGI) with SF-295 CNS, in the assay on SR leukemia and in the assay on UACC-62 melanoma was more than 10 µM each time.

With `COc1cc2c(cc1OCCCC(=O)Nc1cc(C(=O)Nc3cc(C(=O)Nc4cc(C(=O)NCCCN(C)C)n(C)c4)n(C)c3)n(C)c1)N=C[C@@H]1CCCN1C2=O`, the total growth inhibition concentration (TGI) was more than 25.2 µM in the assay with HS 578T breast; 8.74 µM in the assay on IGROV1 ovarian; more than 100 µM in the assay with K-562 leukemia; 3.39 µM in the assay with MALME-3M melanoma; 5.53 µM in the assay with MDA-MB-231 breast; 0.427 µM in the assay with NCI-H522 lung. The results for the TGI in the assay with RPMI-8226 leukemia, in the assay on SF-295 CNS and with UACC-62 melanoma were 14.6 µM, 26.4 µM and 6.53 µM, respectively.

For `CC(=O)Nc1ccc2c(C(=O)O)c(C)c(=O)[nH]c2n1`, the concentration for total growth inhibition (TGI) in the assay with HS 578T breast, with IGROV1 ovarian, in the assay on K-562 leukemia, in the assay with MALME-3M melanoma, with MDA-MB-231 breast and with NCI-H522 lung was more than 100 µM in each case. In addition, the TGI in the assay with RPMI-8226 leukemia, in the assay with SF-295 CNS and in the assay on UACC-62 melanoma was more than 100 µM throughout.

Take `Cc1oc2nc1C(=O)NCc1nc(cs1)C(=O)N[C@H](C(C)C)c1nc(cs1)C(=O)N[C@H]2C`: the total growth inhibition concentration (TGI) was more than 100 µM in the assay on HS 578T breast; more than 100 µM in the assay with IGROV1 ovarian; more than 100 µM with K-562 leukemia; more than 100 µM in the assay with MALME-3M melanoma; more than 100 µM with MDA-MB-231 breast; 87.4 µM in the assay on NCI-H522 lung. For the same molecule, the concentration for total growth inhibition (TGI) with RPMI-8226 leukemia was 54.4 µM; in the assay with SF-295 CNS, 99.4 µM; with UACC-62 melanoma, more than 100 µM.

As for `Oc1nc(N/N=C/c2c[nH]c3ccccc23)[nH]c1/C=C1\C=Nc2ccccc21`, the TGI with HS 578T breast was 40.6 µM; in the assay on IGROV1 ovarian it was 41.2 µM; in the assay with K-562 leukemia it was 27.8 µM; in the assay with MALME-3M melanoma it was 33.8 µM; with MDA-MB-231 breast, 43.2 µM; in the assay with NCI-H522 lung, 24.2 µM. Further, the TGI stood at 25.5 µM in the assay with RPMI-8226 leukemia, 40.9 µM with SF-295 CNS and 37.7 µM with UACC-62 melanoma.

For `Cc1cc2c(cc1-c1cc3c(cc1C)C(C(C)C)=C(O)C(=O)/C3=C\Nc1nc(-c3ccccc3)cs1)/C(=C/Nc1nc(-c3ccccc3)cs1)C(=O)C(O)=C2C(C)C`, the concentration for total growth inhibition (TGI) in the assay with HS 578T breast was more than 100 µM; in the assay on IGROV1 ovarian, 53.4 µM; in the assay with K-562 leukemia it was more than 100 µM; with MALME-3M melanoma, more than 100 µM; with MDA-MB-231 breast it was 28.5 µM; in the assay on RPMI-8226 leukemia it was more than 100 µM. The concentration for total growth inhibition (TGI) was 40.9 µM in the assay with SF-295 CNS, more than 100 µM in the assay on SR leukemia and 35.7 µM in the assay with UACC-62 melanoma.

On to `O=C(O)CC(NC(=O)Nc1ccc([N+](=O)[O-])cc1)C(=O)Nc1ccc([N+](=O)[O-])cc1` (centres undefined), for which the TGI in the assay with HS 578T breast, in the assay with IGROV1 ovarian, in the assay on K-562 leukemia, in the assay with MALME-3M melanoma, in the assay with MDA-MB-231 breast and with NCI-H522 lung was more than 100 µM each time. Besides, the TGI with RPMI-8226 leukemia, with SF-295 CNS and in the assay on UACC-62 melanoma was more than 100 µM each time.
